Holding throughout (format): in vivo
For test [1], the system named is Spodoptera exigua (lesser army worm - larvae). The experiment in a line: Residual test on lesser army worm larvae (SP), Cotton leaf, mortality. Conditions: 48 h, 500 ppm, residual, 2 days, read-out: SP grading of mortality. As to the method:
(§1) The activity of the Product was determined using a variety of insect pests. The Product was used in the form of liquid preparations containing 500, 250 or 100 parts per million (ppm) by weight of the Product. The preparations were made by dissolving the Product in acetone and diluting the solutions with water containing 0.01% by weight of a wetting agent sold under the trade name "LISSAPOL" NX until the liquid preparations contained the required concentration of the Product. "Lissapol" is a Registered Trade Mark.
(§2) The test procedure adopted with regard to each pest was basically the same and comprised supporting a number of the pests on a medium which was usually a host plant or a foodstuff on which the pests feed, and treating either or both the pests and the medium with the preparations. The mortality of the pests was then assessed at periods usually varying from one to three days after the treatment.
(§3) The results of the tests are given in Table III for each of the Products, at the rate in parts per million given in the second column as a grading of mortality designated as A, B or C wherein A indicates 80-100% mortality or knockdown, B indicates 50-79% mortality or knockdown and C indicates less than 50% mortality or knockdown.
(lesser army worm - larvae)

In test [2] the test system is Musca domestica (houseflies - adults). The test can be described thus: Contact test on houseflies - adults (MD), Cotton wool/sugar, mortality. Particulars: 72 h, 500 ppm, contact, 3 days, read-out: MD grading of mortality. As for the experimental part:
as §1, §2, §3

Test [3] has as its system Tetranychus urticae (spider mites - ova). The test can be described thus: Contact test on spider mites - ova (TUe), French bean leaf, mortality. Particulars: 144 h, 500 ppm, contact, 6 days, read-out: TUe grading of mortality. As to the method: as §1, §2, §3
For another test, the system named is Myzus persicae (aphids). The test can be described thus: Contact test on aphids (MP), Chinese Cabbage leaf, mortality. Conditions: 72 h, 500 ppm, contact, 3 days, read-out: MP grading of mortality. As to the method: as §1, §2, §3
Test [4] concerns Musca domestica (houseflies - adults). The test can be described thus: Knockdown test on houseflies - adults (MD/KD), Cotton wool/sugar. Particulars: 500 ppm, 4 hours, read-out: MD/KD grading of knockdown. As to the method:
as §1, §2
In the case of the species Musca domestica (housefly), additional tests to determine the knockdown effect of the compounds were performed. PG,163
as §3

The test system of test [5] is Nephotettix cincticeps (green leaf hopper - nymphs). The test can be described thus: Contact test on green leaf hopper nymphs (NC), Rice plant, mortality. Particulars: 48 h, 500 ppm, contact, 2 days, read-out: NC grading of mortality. As for the experimental part:
as §1, §2, §3
NC Nephotettix cincticeps

Test [6] deals with Tetranychus urticae (spider mites - adult). The test can be described thus: Contact test on spider mites - adult (TUa), French bean leaf, mortality. Conditions: 72 h, 500 ppm, contact, 3 days, read-out: TUa grading of mortality. As to the method: as §1, §2, §3
Test [7] has as its system Diabrotica balteata (rootworm larvae). The test can be described thus: Residual test on rootworm larvae (DB), Filter paper/maize seed, mortality. Particulars: 48 h, 500 ppm, residual, 2 days, read-out: DB grading of mortality. As for the experimental part:
as §1, §2, §3

In test [8] the test system is Blattella germanica (cockroach nymphs). The experiment in a line: Contact test on cockroach nymphs (BG/C), Plastic pot, mortality. Conditions: 48 h, 500 ppm, contact, 2 days, read-out: BG/C grading of mortality. As to the method:
as §1, §2, §3
BG/C Blattella germanica

Test [9] relates to Heliothis virescens (tobacco budworm - larvae). The test can be described thus: Residual test on tobacco budworm larvae (HV), Cotton leaf, mortality. Conditions: 48 h, read-out: HV grading of mortality. As to the method:
as §1, §2, §3
(tobacco budworm - larvae)

Molecules are shown by their SMILES. A value given as a limit tells only on which side of the number the result lay.

For `CC(C)(C)c1ncc([C@H](C(=O)O[C@H](c2cccc(Oc3ccccc3)n2)C(F)(F)F)C(C)(C)C)cn1` (racemic) [Compound 32, (RS)-1-(6-phenoxypyrid-2-yl)-2,2,2-trifluoroethyl (RS)-2-[2-(1,1-dimethylethyl)pyrimidin-5-yl]-3,3-dimethylbutanoate], the mortality at 500 ppm in test [1] lay in the range of 80 to 100%; in test [2] it was 80 to 100%; in test [3], 50 to 79%; with Myzus persicae (aphids), 80 to 100%; in test [5], 80 to 100%; in test [6], 80 to 100%. In addition, the mortality at 500 ppm is 80 to 100% in test [7], under 50% in [8] and 80 to 100% in [9]. The pest or weed control at 500 ppm in [4] was in the range of 80 to 100%.
As for `COCc1c(F)c(F)c(COC(=O)C(c2cnc(C3(C)CC3)nc2)C(C)(C)C)c(F)c1F` (racemic) [Compound 139, 2,3,5,6-tetrafluoro-4-(methoxymethyl)benzyl (RS)-2-[2-(1-methylcyclopropyl)pyrimidin-5-yl]-3,3-dimethylbutanoate], the mortality at 500 ppm was 80 to 100% in test [1]; 80 to 100% in test [2]; under 50% in test [3]; 80 to 100% with Myzus persicae (aphids); 80 to 100% in test [5]; 80 to 100% in test [6]. Moreover, the values for the mortality at 500 ppm in test [7], in [8] and in test [9] were under 50%, 80 to 100% and 80 to 100%, respectively. Besides, the pest or weed control at 500 ppm in [4] is 80 to 100%.
Turning to `C=CCC(C(=O)OCc1c(F)c(F)c(COC)c(F)c1F)c1cnc(C(C)(C)C)nc1` (racemic) [Compound 212, 4-(methoxymethyl)-2,3,5,6-tetrafluorobenzyl (RS)-2-[2-(1,1-dimethylethyl)pyrimidin-5-yl]pent-4-enoate], the mortality at 500 ppm in test [1] was 50 to 79%; in test [2], under 50%; in test [3], under 50%; with Myzus persicae (aphids), 80 to 100%; in test [5], 80 to 100%; in test [6], 80 to 100%. For the same molecule, the mortality at 500 ppm in test [7], in test [8] and in [9] was under 50% in each case. Further, the pest or weed control at 500 ppm in [4] was 80 to 100%.
For `C[C@@H](OC(=O)[C@@H](c1cnc(N(C)C)nc1)C(C)(C)C)c1cccc(Oc2ccccc2)n1` (racemic) [Compound 198, (RS)-1-(6-phenoxypyrid-2-yl)ethyl (RS)-2-[2-(N,N-dimethylamino)pyrimidin-5-yl]-3,3-dimethylbutanoate], the mortality at 500 ppm was 80 to 100% in test [1]; under 50% in [2]; under 50% in [3]; 80 to 100% in the test with Myzus persicae (aphids); 80 to 100% in test [5]; 80 to 100% in [6]. Also, the mortality at 500 ppm in test [7], in test [8] and in test [9] was 80 to 100% each time. Moreover, the pest or weed control at 500 ppm in test [4] lay in the range of 80 to 100%.
With `C[C@@H](OC(=O)[C@@H](c1cnc(C2(C)CC2)nc1)C(C)(C)C)c1cccc(Oc2ccccc2)n1` (racemic) [Compound 203, (RS)-1-(6-phenoxypyrid-2-yl)ethyl (RS)-2-[2-(1-methylcyclopropyl)pyrimidin-5-yl]-3,3-dimethylbutanoate], the mortality at 500 ppm in test [1] is 80 to 100%; in test [2], 80 to 100%; in test [3] it was 50 to 79%; with Myzus persicae (aphids) it was 80 to 100%; in test [5] it was 80 to 100%; in [6], 80 to 100%. The mortality at 500 ppm was under 50% in [7], 50 to 79% in test [8] and 80 to 100% in test [9]. In test [4], the pest or weed control at 500 ppm was in the range of 80 to 100%.

(Values after patent US4962109A, “Insecticidally and acaricidally active pyrimidine esters and intermediates therefor” (Imperial Chemical Industries PLC, priority 1985, dated 1990).)
